According to ChEMBL document CHEMBL4371004, “A-C Estrogens as Potent and Selective Estrogen Receptor-Beta Agonists (SERBAs) to Enhance Memory Consolidation under Low-Estrogen Conditions” (J Med Chem, 2018):

Tests used:
Estrogen receptor [1] = target: T1, Estrogen receptor (Homo sapiens, UniProt P03372)
T1 sequence (P03372 whole entry): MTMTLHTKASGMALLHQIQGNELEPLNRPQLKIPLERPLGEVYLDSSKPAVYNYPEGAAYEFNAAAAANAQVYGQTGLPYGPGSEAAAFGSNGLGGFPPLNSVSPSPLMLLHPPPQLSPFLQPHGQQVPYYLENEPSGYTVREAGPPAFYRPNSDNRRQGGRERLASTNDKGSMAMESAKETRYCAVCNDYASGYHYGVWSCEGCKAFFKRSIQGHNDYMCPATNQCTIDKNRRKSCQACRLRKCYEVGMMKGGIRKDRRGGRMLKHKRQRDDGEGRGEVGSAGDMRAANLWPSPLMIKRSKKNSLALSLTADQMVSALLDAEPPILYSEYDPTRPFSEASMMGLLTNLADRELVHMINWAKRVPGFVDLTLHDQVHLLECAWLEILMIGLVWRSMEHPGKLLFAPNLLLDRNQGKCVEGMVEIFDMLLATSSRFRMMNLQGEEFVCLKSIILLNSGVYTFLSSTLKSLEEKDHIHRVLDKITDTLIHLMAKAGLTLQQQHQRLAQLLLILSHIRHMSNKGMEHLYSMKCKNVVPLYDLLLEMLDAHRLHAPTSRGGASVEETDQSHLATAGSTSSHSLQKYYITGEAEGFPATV
Description: Agonist activity at estrogen receptor alpha (unknown origin) after 22 hrs by cell-based luciferase reporter gene assay

Estrogen receptor [2] = target: T1, Estrogen receptor; remark: listed apart in the source
Estrogen receptor beta [3] = target: T2, Estrogen receptor beta (Homo sapiens, UniProt Q92731)
Estrogen receptor beta [4] = target: T2, Estrogen receptor beta; remark: listed apart in the source
Mus musculus [5] = assay: Memory enhancement effect in C57BL/6 mouse assessed as time spent with moved object at 10 pg administered as dorsal hippocampal infusion by novel object recognition test; type: functional
Mus musculus [6] = assay: Memory enhancement effect in C57BL/6 mouse assessed as time spent with novel object at 10 pg administered as dorsal hippocampal infusion by novel object recognition test; type: functional
Mus musculus [7] = assay: Memory enhancement effect in C57BL/6 mouse assessed as time spent with moved object at 0.05 mg/kg, ip by novel object recognition test; type: functional
Mus musculus [8] = assay: Memory enhancement effect in C57BL/6 mouse assessed as time spent with novel object at 0.05 mg/kg, ip by novel object recognition test; type: functional
Mus musculus [9] = assay: Memory enhancement effect in C57BL/6 mouse assessed as time spent with moved object at 0.05 mg/kg, po administered via gavage by object recognition test; type: functional
Mus musculus [10] = assay: Memory enhancement effect in C57BL/6 mouse assessed as time spent with novel object at 0.05 mg/kg, po administered via gavage by novel object recognition test; type: functional

T2 sequence (Q92731 whole entry): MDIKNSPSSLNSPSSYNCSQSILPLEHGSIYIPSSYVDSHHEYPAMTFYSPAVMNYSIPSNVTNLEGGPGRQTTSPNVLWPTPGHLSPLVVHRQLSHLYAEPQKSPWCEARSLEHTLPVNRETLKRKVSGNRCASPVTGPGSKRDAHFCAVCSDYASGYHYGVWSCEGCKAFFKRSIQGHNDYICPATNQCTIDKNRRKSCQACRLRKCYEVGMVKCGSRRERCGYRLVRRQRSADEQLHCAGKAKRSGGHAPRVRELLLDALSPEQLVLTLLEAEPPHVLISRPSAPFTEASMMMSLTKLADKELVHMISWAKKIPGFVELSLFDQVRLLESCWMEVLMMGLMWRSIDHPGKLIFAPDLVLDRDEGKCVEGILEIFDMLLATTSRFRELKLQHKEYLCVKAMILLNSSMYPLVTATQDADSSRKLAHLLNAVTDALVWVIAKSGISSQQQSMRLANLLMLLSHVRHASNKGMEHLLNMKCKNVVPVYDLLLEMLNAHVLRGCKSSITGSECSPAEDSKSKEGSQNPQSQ

`OCC1CC=C(c2ccc(O)cc2)CC1` (racemic) was tested, and the EC50 (Estrogen receptor [1]) was > 20 µM and the EC50 (Estrogen receptor [2]) was > 10 µM.

`ON=C1CCC(c2ccc(O)cc2)CC1` (stereo not drawn) showed an EC50 (Estrogen receptor beta [3]) of 1.57 µM.

In the case of `C=C1CCC(c2ccc(O)cc2)CC1`, the EC50 (Estrogen receptor [1]) is reported as > 10 µM and the EC50 (Estrogen receptor [2]) is reported as > 10 µM.

`Oc1ccc([C@H]2CC[C@H](O)CC2)cc1` gave an EC50 (Estrogen receptor beta [4]) of 7.52 µM.

With `OCCC1CCC(c2ccc(O)cc2)CC1` (stereo not drawn) the EC50 (Estrogen receptor [1]) was > 50 µM and the EC50 (Estrogen receptor [2]) was > 10 µM.

`C=C1CCC(c2ccc(O)c(/C=N/O)c2)CC1` was tested, and the EC50 (Estrogen receptor beta [4]) was 0.225 µM.

Work on `N#CC(Cc1ccc(O)cc1)c1ccc(O)cc1` (stereo not drawn) [DIARYLPROPIONITRILE] yielded a Time (Mus musculus [5]) of 4.5 s, a Time (Mus musculus [6]) of 2.35 s and a Time (Mus musculus [7]) of 3.2 s. It also gave a Time (Mus musculus [8]) of 3.52 s, a Time (Mus musculus [9]) of 2.76 s and a Time (Mus musculus [10]) of 3.89 s.

`Oc1ccc([C@]23CC[C@H](CC2)CO3)cc1` gave an EC50 (Estrogen receptor beta [4]) of 0.25 µM.

Compound `OC[C@]1(O)CC[C@H](c2ccc(O)cc2)CC1` has an EC50 (Estrogen receptor beta [4]) of 2.7 µM.

`C[C@]1(O)CC[C@@H](c2ccc(O)cc2)CC1` showed an EC50 (Estrogen receptor beta [4]) of 6.29 µM.

`O=C1CCC(c2ccc(O)cc2)CC1` showed an EC50 (Estrogen receptor beta [4]) of 19 µM.

With `C=C1CCC(c2ccc(O)c(C=O)c2)CC1` the EC50 (Estrogen receptor beta [4]) was 21 µM.

For `CC1CCC(c2ccc(O)cc2)CC1` (stereo not drawn), the EC50 (Estrogen receptor [1]) was > 10 µM and the EC50 (Estrogen receptor [2]) was > 10 µM.

`OCC=C1CCC(c2ccc(O)cc2)CC1` (racemic) showed an EC50 (Estrogen receptor beta [3]) of 0.68 µM.
